What follows are compounds tested on Caenorhabditis elegans (assay: Increase in life span of Caenorhabditis elegans Bristol N2 at late L4 larval stage at 100 uM in presence of 5-fluorodesoxyuridine relative to control).
Assay type: functional

`CO[C@H]1C[C@@H]2CC[C@@H](C)[C@@](O)(O2)C(=O)C(=O)N2CCCC[C@H]2C(=O)O[C@H]([C@H](C)C[C@@H]2CC[C@@H](O)[C@H](OC)C2)CC(=O)[C@H](C)/C=C(\C)[C@@H](O)[C@@H](OC)C(=O)[C@H](C)C[C@H](C)/C=C/C=C/C=C/1C` [SIROLIMUS] gave an ILS at 100 µM of 38%.

What follows are compounds tested on Caenorhabditis elegans (assay: Increase in life span of Caenorhabditis elegans Bristol N2 at late L4 larval stage at 50 uM in presence of 5-fluorodesoxyuridine relative to control).
Assay type: functional

Going from `CC(=O)OC[C@]12[C@@H](OC(=O)c3ccccc3)[C@@H](OC(C)=O)[C@@H]3[C@@H](OC(C)=O)[C@]1(OC3(C)C)[C@H](C)C[C@H](OC(C)=O)[C@@H]2OC(C)=O` to `CC(=O)O[C@H]1[C@@H]2[C@@H](OC(C)=O)[C@]3(OC2(C)C)[C@H](C)C[C@@H](OC(C)=O)[C@H](OC(C)=O)[C@@]3(C)[C@H]1OC(=O)c1ccccc1`, the ILS at 50 µM falls from 16% to 15%.

First: CC(=O)O[C@H]1[C@@H]2[C@@H](OC(=O)c3ccccc3)[C@]3(OC2(C)C)[C@H](C)C[C@@H](OC(C)=O)[C@H](OC(C)=O)[C@@]3(C)[C@H]1OC(=O)c1ccccc1
Second: CC(=O)O[C@@H]1[C@@H]2[C@@H](OC(C)=O)[C@]3(OC2(C)C)[C@H](C)C[C@H](OC(=O)/C=C/c2ccccc2)[C@H](OC(C)=O)[C@@]3(C)[C@@H]1OC(=O)c1ccccc1
The ILS at 50 µM of the first is higher: 28% for the first, 15% for the second.

Going from `CC(=O)O[C@@H]1[C@@H]2[C@@H](OC(C)=O)[C@]3(OC2(C)C)[C@H](C)CC(=O)[C@H](OC(C)=O)[C@@]3(C)[C@@H]1OC(=O)c1ccccc1` to `CC(=O)O[C@@H]1[C@@H]2[C@@H](OC(C)=O)[C@]3(OC2(C)C)[C@H](C)C[C@@H](OC(C)=O)[C@H](OC(C)=O)[C@@]3(C)[C@@H]1OC(=O)c1ccccc1`, the ILS at 50 µM falls from 37% to 17%.

Going from `CC(=O)O[C@H]1[C@@H]2C[C@]3(OC2(C)C)[C@H](C)C[C@H](OC(C)=O)[C@@H](OC(C)=O)[C@@]3(C)[C@H]1OC(=O)c1ccccc1` to `CC(=O)O[C@@H]1[C@H]2C[C@H](OC(=O)c3ccccc3)[C@]3(C)[C@@H](OC(C)=O)[C@H](OC(C)=O)C[C@@H](C)[C@@]13OC2(C)C`, the ILS at 50 µM rises from 12% to 14%.

Work on `CC(=O)O[C@@H]1[C@@H]2[C@@H](OC(C)=O)[C@]3(OC2(C)C)[C@H](C)CC[C@H](O)[C@@]3(C)[C@@H]1OC(=O)c1ccccc1` yielded an ILS at 50 µM of 16%.
